Here are results for 25 compounds from patent publication US20240002438A1, “MELANOCORTIN LIGANDS AND METHODS OF USE THEREOF” (REGENTS OF THE UNIVERSITY OF MINNESOTA, priority 2021, published 2024).

As usually defined, the Ki is the dissociation constant of the complex between target and ligand, obtained from inhibition or displacement. High values mean weaker binding, low ones tighter binding. Usually EC50 stands for the concentration needed to bring the measured effect to its halfway point.

Read-outs that look alike come from different tables or passages of the source. Where a SMILES comes first, the peptide text is derived from it. [ ]: non-standard residue; d: D form. dPhe(4-I) = N[C@H](Cc1ccc(I)cc1)C(=O)O; 2Nal = N[C@@H](Cc1ccc2ccccc2c1)C(=O)O; d2Nal = N[C@H](Cc1ccc2ccccc2c1)C(=O)O

Test [1] concerns the target T1, mMC3R (Mus musculus, UniProt P33033). Kind of test: mMC3R | Antagonist Potency Ki (nM). Details: expressed in transfected cells; host or cells: HEK293. An excerpt: (§1) Table printed on a drawing sheet, FIGURE 18
(§2) Title: Tetrapeptide Antagonist Pharmacology at the Mouse Melanocortin Receptors.^a
Head of the field: mMC3R | Antagonist Potency Ki (nM)
(§3) First copying reader's note: Columns 4 and 7 are empty spacer columns as printed; the table runs off the bottom of the sheet (continued on the next sheet) and footnotes a and b are not printed here.
Target sequence in this assay (P33033 whole entry, looked up): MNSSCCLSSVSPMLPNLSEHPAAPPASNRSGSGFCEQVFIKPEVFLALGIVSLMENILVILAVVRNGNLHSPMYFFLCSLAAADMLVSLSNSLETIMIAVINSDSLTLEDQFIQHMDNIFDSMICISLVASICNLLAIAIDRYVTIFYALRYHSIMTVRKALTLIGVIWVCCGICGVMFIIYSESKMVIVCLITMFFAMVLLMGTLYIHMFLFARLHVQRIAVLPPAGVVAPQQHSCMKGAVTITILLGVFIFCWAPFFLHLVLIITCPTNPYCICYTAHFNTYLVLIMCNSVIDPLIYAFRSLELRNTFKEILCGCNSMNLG

The target in test [2] is T2, mMC4R (Mus musculus, UniProt P56450). The test is described as follows: mMC4R | Antagonist Potency Ki (nM). Details: expressed in transfected cells; host or cells: HEK293.
From the text: as §1, §2
Target sequence in this assay (P56450 whole entry, looked up): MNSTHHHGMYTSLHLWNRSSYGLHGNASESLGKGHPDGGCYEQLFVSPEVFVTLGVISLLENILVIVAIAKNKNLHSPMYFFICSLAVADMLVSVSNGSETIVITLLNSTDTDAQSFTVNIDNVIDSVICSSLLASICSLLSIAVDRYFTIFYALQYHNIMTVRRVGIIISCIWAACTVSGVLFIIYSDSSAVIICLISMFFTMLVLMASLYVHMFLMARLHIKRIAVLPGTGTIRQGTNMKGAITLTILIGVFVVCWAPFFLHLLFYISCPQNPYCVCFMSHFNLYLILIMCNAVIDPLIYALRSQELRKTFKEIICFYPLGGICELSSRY
Head of the field: mMC4R | Antagonist Potency Ki (nM)
as §3

The target of test [3] is T1, mMC3R. Kind of test: cAMP AlphaScreen antagonist assay at mMC3R, NDP-MSH as agonist, HEK293 cells. Conditions: for mMC3R antagonist activity: at the concentrations assayed. A general note: In Alpha technology, singlet oxygen from a donor bead excites a nearby acceptor bead.
Target sequence in this assay (P33033 whole entry): as the sequence (P33033 whole entry, looked up) above
Another test has as its target mMC5R (Mus musculus, UniProt P41149). The test is described as follows: cAMP AlphaScreen agonist assay at mMC5R, HEK293 cells. Conditions: for mMC5R agonist activity: up to 100 μM; for mMC5R partial stimulation, % of the maximal NDP-MSH signal: 100 μM.
In test [4] the target is T2, mMC4R. Kind of test: cAMP AlphaScreen antagonist assay at mMC4R, NDP-MSH as agonist, HEK293 cells. Conditions: NDP-MSH as agonist; HEK293 cells stably expressing mMC4R.
Target sequence in this assay (P56450 whole entry): as the sequence (P56450 whole entry, looked up) above
Method: (§4) Following stimulation, streptavidin donor beads (0.5 μg) and biotinylated-cAMP (0.62 μmol) were added to the wells in a green light environment with 10 μL of lysis buffer (5 mM HEPES, 0.3% Tween-20, 0.1% BSA, pH=7.4) and the plates were incubated in the dark at room temperature for an additional 2 h. Plates were read on a Enspire (PerkinElmer) Alpha-plate reader using a pre-normalized assay protocol (set by the manufacturer).

mMC5R, sequence (P41149 whole entry): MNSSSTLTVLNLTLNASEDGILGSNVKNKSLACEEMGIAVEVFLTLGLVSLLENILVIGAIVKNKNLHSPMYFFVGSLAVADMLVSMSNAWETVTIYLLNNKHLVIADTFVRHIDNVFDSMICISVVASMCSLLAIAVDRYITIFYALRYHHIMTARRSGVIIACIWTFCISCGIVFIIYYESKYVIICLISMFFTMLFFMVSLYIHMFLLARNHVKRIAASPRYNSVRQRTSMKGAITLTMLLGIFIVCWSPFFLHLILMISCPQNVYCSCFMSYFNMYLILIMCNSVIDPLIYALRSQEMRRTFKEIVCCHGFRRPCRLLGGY
Method for mMC5R: as §4

For the compound `CC(=O)N[C@H](Cc1ccc2ccccc2c1)C(=O)N[C@H](Cc1ccc2ccccc2c1)C(=O)N[C@@H](Cc1c[nH]c2ccccc12)C(=O)N[C@H](CCCCN)C(N)=O` [4 | COR1-29-2, Ac-DNal(2’)-DNal(2’)-Trp-DLys-NH2] (Ac-[d2Nal][d2Nal]W[dK]-NH2), the inhibition constant (Ki) stood at 1600 nM at mMC3R [1] and 200 nM at mMC4R [2].
Take `CC(=O)N[C@H](Cc1ccc2ccccc2c1)C(=O)N[C@@H](CCCNC(=N)N)C(=O)N[C@H](Cc1ccc2ccccc2c1)C(=O)N[C@H](CCCCN)C(N)=O` [13 | COR1-29-5, Ac-DNal(2’)-Arg-DNal(2’)-DLys-NH2] (Ac-[d2Nal]R[d2Nal][dK]-NH2): the Ki was determined as 1000 nM at mMC3R [1] and 6.3 nM at mMC4R [2].
With `CC(=O)N[C@H](Cc1ccc2ccccc2c1)C(=O)N[C@@H](CCCNC(=N)N)C(=O)N[C@H](Cc1ccc2ccccc2c1)C(=O)N[C@H](Cc1ccc2ccccc2c1)C(N)=O` [14 | COR2-57, Ac-DNal(2’)-Arg-DNal(2’)-DNal(2’)-NH2] (Ac-[d2Nal]R[d2Nal][d2Nal]-NH2), the Ki at mMC3R [1] worked out at 2000 nM; at mMC4R [2], 500 nM.
The like results for `CC(=O)N[C@H](Cc1ccc2ccccc2c1)C(=O)N[C@@H](CCCNC(=N)N)C(=O)N[C@H](Cc1ccc2ccccc2c1)C(=O)N[C@@H](CCCNC(=N)N)C(N)=O` [15 | COR2-93, Ac-DNal(2’)-Arg-DNal(2’)-Arg-NH2] (Ac-[d2Nal]R[d2Nal]R-NH2) were, in that order, 790 nM and 5 nM.
The like results for `CC(=O)N[C@H](Cc1ccc2ccccc2c1)C(=O)N[C@@H](CCCNC(=N)N)C(=O)N[C@@H](Cc1c[nH]c2ccccc12)C(=O)N[C@H](CCCCN)C(N)=O` [16 | COR1-29-6, Ac-DNal(2’)-Arg-Trp-DLys-NH2] (Ac-[d2Nal]RW[dK]-NH2) were, in that order, 3200 nM and 20 nM.
The like results for `CC(=O)N[C@H](Cc1ccc2ccccc2c1)C(=O)N[C@@H](CCCNC(=N)N)C(=O)N[C@@H](Cc1c[nH]c2ccccc12)C(=O)N[C@H](Cc1ccc2ccccc2c1)C(N)=O` [17 | COR1-60, Ac-DNal(2’)-Arg-Trp-DNal(2’)-NH2] (Ac-[d2Nal]RW[d2Nal]-NH2) were, in that order, 2000 nM and 100 nM.
Regarding `CC(=O)N[C@H](Cc1ccc2ccccc2c1)C(=O)N[C@@H](CCCNC(=N)N)C(=O)N[C@@H](Cc1c[nH]c2ccccc12)C(=O)N[C@@H](CCCNC(=N)N)C(N)=O` [18 | MDE10-27, Ac-DNal(2’)-Arg-Trp-Arg-NH2] (Ac-[d2Nal]RWR-NH2), the Ki at mMC3R [1] stood at 160 nM; on mMC4R [2] it was 5 nM.
The like results for `CC(=O)N[C@H](Cc1ccc2ccccc2c1)C(=O)N[C@@H](CCCNC(=N)N)C(=O)N[C@H](Cc1ccc(I)cc1)C(=O)N[C@H](CCCCN)C(N)=O` [19 | COR1-29-7, Ac-DNal(2’)-Arg-DPhe(pI)-DLys-NH2] were, in that order, 130 nM and 3.2 nM.
With `CC(=O)N[C@H](Cc1ccc2ccccc2c1)C(=O)N[C@@H](CCCNC(=N)N)C(=O)N[C@H](Cc1ccc(I)cc1)C(=O)N[C@H](Cc1ccc2ccccc2c1)C(N)=O` [20 | COR2-15, Ac-DNal(2’)-Arg-DPhe(pI)-DNal(2’)-NH2] (Ac-[d2Nal]R[dPhe(4-I)][d2Nal]-NH2), the Ki at mMC3R [1] is 790 nM; on mMC4R [2] it was 320 nM.
The matching figures for `CC(=O)N[C@H](Cc1ccc2ccccc2c1)C(=O)N[C@@H](CCCNC(=N)N)C(=O)N[C@H](Cc1ccc(I)cc1)C(=O)N[C@@H](CCCNC(=N)N)C(N)=O` [21 | COR2-105, Ac-DNal(2’)-Arg-DPhe(pI)-Arg-NH2] (Ac-[d2Nal]R[dPhe(4-I)]R-NH2): 79 nM and 2.5 nM.
On to `CC(=O)N[C@H](Cc1ccc2ccccc2c1)C(=O)N[C@@H](CCCNC(=N)N)C(=O)N[C@@H](Cc1ccc2ccccc2c1)C(=O)N[C@H](CCCCN)C(N)=O` [22 | COR1-29-8, Ac-DNal(2’)-Arg-Nal(2’)-DLys-NH2] (Ac-[d2Nal]R[2Nal][dK]-NH2), for which the values for the Ki at mMC3R [1] and at mMC4R [2] were 630 nM and 16 nM, respectively.
As to `CC(=O)N[C@H](Cc1ccc2ccccc2c1)C(=O)N[C@@H](CCCNC(=N)N)C(=O)N[C@@H](Cc1ccc2ccccc2c1)C(=O)N[C@H](Cc1ccc2ccccc2c1)C(N)=O` [23 | COR2-33, Ac-DNal(2’)-Arg-Nal(2’)-DNal(2’)-NH2] (Ac-[d2Nal]R[2Nal][d2Nal]-NH2), the affinity at mMC4R [2] corresponds to a Ki of 200 nM.
In the case of `CC(=O)N[C@H](Cc1ccc2ccccc2c1)C(=O)N[C@@H](CCCNC(=N)N)C(=O)N[C@@H](Cc1ccc2ccccc2c1)C(=O)N[C@@H](CCCNC(=N)N)C(N)=O` [24 | MDE10-28, Ac-DNal(2’)-Arg-Nal(2’)-Arg-NH2] (Ac-[d2Nal]R[2Nal]R-NH2), the inhibition constant Ki on mMC3R [1] came out at 100 nM; on mMC4R [2], 1.6 nM.
For `CC(=O)N[C@H](Cc1ccc(I)cc1)C(=O)N[C@H](Cc1ccc2ccccc2c1)C(=O)N[C@H](Cc1ccc2ccccc2c1)C(=O)N[C@H](CCCCN)C(N)=O` [25 | COR1-80, Ac-DPhe(pI)-DNal(2’)-DNal(2’)-DLys-NH2] (Ac-[dPhe(4-I)][d2Nal][d2Nal][dK]-NH2), the Ki at mMC4R [2] amounted to 500 nM.
Take `CC(=O)N[C@H](Cc1ccc2ccccc2c1)C(=O)N[C@H](Cc1ccc2ccccc2c1)C(=O)N[C@H](Cc1ccc2ccccc2c1)C(=O)N[C@@H](CCCNC(=N)N)C(N)=O` [compound 3, Ac-DNal(2′)-DNal(2′)-DNal(2′)-Arg-NH2] (Ac-[d2Nal][d2Nal][d2Nal]R-NH2): the “mMC3R antagonist activity” value on mMC3R [3] is listed as “did not act as antagonists”. Moreover, the EC50 was 30 to 800 nM on mMC5R and 130 nM at mMC5R (read-out: mMC5R agonist EC50). Further, the “mMC5R agonist activity” value at mMC5R was “full mMC5R agonists”.
For the compound `CC(=O)N[C@H](Cc1ccc2ccccc2c1)C(=O)N[C@H](Cc1ccc2ccccc2c1)C(=O)N[C@H](Cc1ccc(I)cc1)C(=O)N[C@@H](CCCNC(=N)N)C(N)=O` [compound 9, Ac-DNal(2′)-DNal(2′)-DPhe(pI)-Arg-NH2] (Ac-[d2Nal][d2Nal][dPhe(4-I)]R-NH2), the “mMC3R antagonist activity” value at mMC3R [3] was “did not act as antagonists”. Also, at mMC5R, the EC50 lay in the range of 30 to 800 nM and the “mMC5R agonist activity” value is listed as “full mMC5R agonists”. For the same compound, the 50% effective concentration (EC50) at mMC5R (read-out: mMC5R agonist EC50) was found to be 30 nM.
With “Ac-DNal(2′)-DNal(2′)-Nal(2′)-Arg-NH2 [compound 12]”, the “mMC5R partial stimulation, % of the maximal NDP-MSH signal” value (“mMC5R partial stimulation, %” for short) at mMC5R was 40%.
Take “Ac-DNal(2′)-DNal(2′)-Trp-DLys-NH2 [compound 4]”: the “mMC3R antagonist pA2” value at mMC3R [3] (NDP-MSH as agonist, HEK293 cells stably expressing mMC3R) is 5.8.
Regarding “Ac-DPhe(pI)-DNal(2′)-DNal(2′)-DLys-NH2 [compound 25]”, at mMC4R [4], the “mMC4R antagonist pA2” value is 6.3.
In the case of “Ac-DPhe(pI)-DNal(2′)-Nal(2′)-DLys-NH2 [compound 34]”, on mMC5R, the “mMC5R partial stimulation, %” value was 50%.
Regarding “Ac-DPhe(pI)-DNal(2′)-Trp-Arg-NH2 [compound 30]”, the “mMC5R agonist activity” value on mMC5R was “inactive”. Besides, the “mMC4R antagonist pA2” value on mMC4R [4] is 5.6.
For Ac-[d2Nal]RW[dK]-NH2 [compound 16], the “mMC4R antagonist pA2” value at mMC4R [4] came to 7.7.
Take Ac-[d2Nal]R[2Nal]R-NH2 [compound 24]: the “mMC4R antagonist pA2” value at mMC4R [4] amounted to 8.8.
As to Ac-[d2Nal][d2Nal]WR-NH2 [compound 6], the “mMC5R partial stimulation, %” value at mMC5R is 45%.
Turning to Ac-[dPhe(4-I)]RW[dK]-NH2 [compound 40], the “mMC4R antagonist pA2” value at mMC4R [4] came out at 7.6.
